A melting point compilation (Tetko et al.; mined from patent text by program, amines drawn as free bases though some values may be those of a salt)

Structure (SMILES)	melting point [°C]
CCCn1c(=O)c2[nH]c(C3CCCC3)nc2n(CCc2ccc(N)cc2)c1=O	248 to 250
Cc1c(Cl)cc2c(c1Cl)OC(C(F)(F)F)C(C(=O)O)=C2 (stereo unspecified)	230 to 231
COc1ccc(Cc2nc(NCCO)c3c(C)c(C#N)sc3n2)cc1OC	149 to 151
O=C(O)COc1cc2c(c(Cl)c1Cl)C(=O)C(c1ccccc1)(C1CCCC1)C2 (stereo unspecified)	184 to 186
C[C@H](NC(=O)C1(C)Oc2cc([N+](=O)[O-])ccc2NC1=O)C(=O)N[C@H](CCC(=O)O)C(=O)O (stereo partly specified)	132 to 135
Cc1ccc(N)cc1C(=O)NS(C)(=O)=O	174 to 176
N#Cc1ccc(N(Cc2ccc3c(c2)CNS(=O)(=O)O3)n2ccnc2)cc1	190
COc1c(Cl)cc(N=C=S)cc1C(=O)Nc1c(C)cccc1C	191 to 192
CC1=C(C(=O)OC(C)C)C(c2cccc(Cl)c2Cl)N(C(=O)OC(C)C)C(=S)N1 (stereo unspecified)	179 to 181
CCOC(=O)CCCn1c(Nc2c(C)nn(C)c2C)nc2c(Cl)ccc(C(CC)CC)c21	177 to 178
CC(C)(C)C(=O)C(F)n1cncn1 (stereo unspecified)	54 to 55
Cn1c(-c2ccccc2[N+](=O)[O-])nc2ccccc21	132 to 134
CNc1cc(Oc2ccc3c(C(=O)Nc4ccc(F)c(C(F)(F)F)c4)cncc3c2)ncn1	255 to 257
Clc1ccc(NNc2ccc(Cl)cc2)cc1	120 to 121
O=C(OCc1ccccc1)[C@@H]1COC(c2ccccc2OCc2ccccc2)=N1	69 to 71
CC(C)(C)OC(=O)NCc1cccc(Nc2n[nH]c3ncnc(Nc4cccc(Cl)c4)c23)c1	147 to 148
COc1ccc(-c2nc(C(F)(F)F)c[nH]2)cc1	204 to 206
Cc1ccc(C(=O)NC(C)NC(=S)Nc2cccc([N+](=O)[O-])c2)cc1 (stereo unspecified)	172 to 175
COc1cc(-c2nc3ccc(O)cc3n2Cc2ccccc2C(F)(F)F)cc(OC)c1OC	191
CCOC(=O)C1=C(N)NC(C)=C(C(=O)OC)C1c1ccccc1C#N (stereo unspecified)	224
C=CCNc1cc(Oc2ccccc2)ccc1[N+](=O)[O-]	67 to 68
CS(=O)(=O)Oc1ccc(-c2c3ccccc3c(C(F)(F)F)c3sc4ccccc4c23)cc1	215 to 216
O=C1CC([N+](=O)[O-])([N+](=O)[O-])CO1	100 to 102
COc1nc(C)nc(NC(=O)NS(=O)(=O)c2cccc3c2nnn3C)n1	134 to 136
O=C(CCl)Oc1ccc(OC(=O)CCl)cc1	127 to 128
CN1CCC(CC2CN=C(c3cc4cccc(N(C)S(=O)(=O)c5cccs5)c4[nH]3)S2)=N1 (stereo unspecified)	149 to 150

Structure (SMILES)	melting point [°C]
CCCCCCCCCCCCCC(C)S(=O)(=O)NC(=O)Nc1c(C(C)C)cccc1C(C)C (stereo unspecified)	65 to 75
CC(c1ccncc1Cl)C(O)(Cn1cncn1)c1ccc(F)cc1F (stereo unspecified)	182 to 184
O=C(NC(=O)c1cccs1)NC1CCN(Cc2c[nH]c3ccccc23)CC1	231 to 232
CCC(CC)(C(N)=O)c1ccc(Cl)cc1	107 to 109
CCCCCCCCCCCCCCCCOc1cc(C(=O)OCC)cc(C(=O)OCC)c1	45
CCOC(=O)Cc1c(C(=O)OCC)c(C)cn1C	71 to 72
CN(C)S(=O)(=O)c1ccc(-c2ccc(N)cc2)cc1	178 to 180
O=C(Cl)c1ccc(-c2ccc(C(=O)Cl)cn2)nc1	216 to 217
CCCc1c(OCCCS(=O)(=O)c2ccc(CC(=O)O)c(Cl)c2Cl)ccc(C(C)=O)c1O	180 to 181
CCOC(=O)c1ccc(CCC=O)cc1	109
CCOC(=O)C(O)=CC=C(SCc1ccccc1)C(=O)OCC	< 40
COc1cc(Oc2csc(C(F)(F)F)c2)nc(-c2ccc(C(F)(F)F)cc2)n1	91 to 93
CCOC(=O)c1[nH]cc2c1NC1=C(C(=O)CNC1)C2c1ccc(Sc2nc3ccc(OC)cc3[nH]2)o1 (stereo unspecified)	248
O=C1Nc2ccc(Cl)cc2C1(O)c1ccccc1OCc1ccccc1 (stereo unspecified)	197
O=C(Nc1nccs1)c1c(C(F)F)nc2c(C(F)(F)F)cccc2c1O	226
COc1ccc(S(=O)(=O)Nc2cccnc2Nc2ccc(F)cc2)cc1	196 to 197
CC(=O)C1=CCC2C3CCC4=CC(=O)CCC4(C)C3=CCC12C (stereo unspecified)	200 to 201
Cc1ccc(C(=S)CCCCCC#N)cc1	49.5 to 51
N#Cc1ccc(CCn2ccn(C3CCc4ccccc4C3)c2=S)cc1 (stereo unspecified)	169 to 170
COc1ccc(C=C(c2ccc(OC)cc2)N(C)C)cc1	67 to 69
COc1cccc(CC2CCN(C(=O)C(=O)Nc3ccc4[nH]c(=O)oc4c3)CC2)c1	110 to 115
FC(F)(F)C(F)(F)Cc1ccc(CBr)cc1	62 to 63
CN1CCc2cc([N+](=O)[O-])c(O)cc2C(c2cccc3c2OCC3)C1 (single isomer, unassigned; (+))	122 to 123
NC(=O)c1ccccc1N1CCc2cc(Br)ccc21	120 to 122
CS(=O)(=O)Nc1cccc(C=C2c3ccc(Cl)cc3CCc3cc(Cl)ccc32)c1	182
